Data: ChEMBL document CHEMBL1201862, “PubChem BioAssay data set” (2004)
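Briefly, cells in 96-well plates were exposed to five compound concentrations for 48 h, and endpoints were estimated by linear interpolation. At the GI50, growth is halved.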 Calls of active or inactive are those of the source. Cut-off read from the data, not from the text of the source: active = GI50 up to about 1.1 µM and inactive = higher.

Experiments:
Assay in all cases: DTP human tumour cell line panel, 48 h
A549 = tested on: A549
TK-10 = tested on: TK-10
MDA-MB-231 = tested on: MDA-MB-231
HCC 2998 = tested on: HCC 2998
ACHN = tested on: ACHN
OVCAR-3 = tested on: OVCAR-3
NCI-H226 = tested on: NCI-H226
786-0 = tested on: 786-0
SR = tested on: SR
MDA-MB-435 = tested on: MDA-MB-435
COLO 205 = tested on: COLO 205
DU-145 = tested on: DU-145
SK-MEL-2 = tested on: SK-MEL-2
HCT-15 = tested on: HCT-15
SK-MEL-5 = tested on: SK-MEL-5
UO-31 = tested on: UO-31
NCI-H23 = tested on: NCI-H23
SF-295 = tested on: SF-295

Which results are given for Nc1nc(Cl)c(C=O)c(NCC2(CO)CC(CCc3ccccc3)C2)n1 (centres undefined)?
GI50 (A549): 12.1 µM (inactive); GI50 (TK-10): 15.2 µM (inactive); GI50 (MDA-MB-231): 7.46 µM (inactive); GI50 (HCC 2998): 1.88 µM (inactive); GI50 (ACHN): 12.7 µM (inactive); GI50 (OVCAR-3): 11.3 µM (inactive); GI50 (NCI-H226): 12.6 µM (inactive); GI50 (786-0): 21 µM (inactive); GI50 (SR): 1.87 µM (inactive); GI50 (MDA-MB-435): 5.73 µM (inactive); GI50 (COLO 205): 11.6 µM (inactive); GI50 (DU-145): 14.8 µM (inactive); GI50 (SK-MEL-2): 3.57 µM (inactive); GI50 (HCT-15): 4.18 µM; GI50 (SK-MEL-5): 8.05 µM (inactive); GI50 (UO-31): 1.48 µM (inactive); GI50 (NCI-H23): 2.29 µM (inactive); GI50 (SF-295): 13.3 µM (inactive)

Which results are given for N#CCCCC[N+]12CN3CN(CN(C3)C1)C2?
GI50 (A549): > 100 µM (inactive); GI50 (TK-10): > 100 µM (inactive); GI50 (MDA-MB-231): > 100 µM (inactive); GI50 (HCC 2998): > 100 µM (inactive); GI50 (ACHN): > 100 µM (inactive); GI50 (OVCAR-3): > 100 µM (inactive); GI50 (NCI-H226): > 100 µM (inactive); GI50 (786-0): > 100 µM (inactive); GI50 (SR): 30.8 µM (inactive); GI50 (MDA-MB-435): > 100 µM (inactive); GI50 (COLO 205): > 100 µM (inactive); GI50 (DU-145): > 100 µM (inactive); GI50 (SK-MEL-2): > 100 µM (inactive); GI50 (HCT-15): > 100 µM; GI50 (SK-MEL-5): > 100 µM (inactive); GI50 (UO-31): > 100 µM (inactive); GI50 (NCI-H23): > 100 µM (inactive); GI50 (SF-295): > 100 µM (inactive)

Which results are given for Nc1c([N+](=O)[O-])cc2c3c(cccc13)CC2?
GI50 (A549): 78.5 µM (inactive); GI50 (TK-10): 42.8 µM (inactive); GI50 (MDA-MB-231): 38.9 µM (inactive); GI50 (HCC 2998): > 100 µM (inactive); GI50 (ACHN): > 100 µM (inactive); GI50 (OVCAR-3): > 100 µM (inactive); GI50 (NCI-H226): > 100 µM (inactive); GI50 (786-0): 57.4 µM (inactive); GI50 (SR): 25.4 µM (inactive); GI50 (MDA-MB-435): 62.5 µM (inactive); GI50 (COLO 205): 64.1 µM (inactive); GI50 (DU-145): 46 µM (inactive); GI50 (SK-MEL-2): 51.3 µM (inactive); GI50 (HCT-15): 65.9 µM; GI50 (SK-MEL-5): 53.2 µM (inactive); GI50 (UO-31): 42.5 µM (inactive); GI50 (NCI-H23): 55 µM (inactive); GI50 (SF-295): 91.6 µM (inactive)

With Cc1cc(-c2nc3ccccc3s2)ccc1NC(=O)[C@@H](N)CCCCN as the compound, how does the GI50 (A549) read?
The GI50 was 6.14 µM (inactive).

And the GI50 (TK-10)?
Its GI50 is 0.993 µM (active).

What about the GI50 (MDA-MB-231) of the same compound?
The GI50 was 9.04 µM (inactive).

What about the GI50 (HCC 2998) of the same compound?
Its GI50 is 6.31 µM (inactive).

And the GI50 (ACHN)?
The GI50 was 14.7 µM (inactive).

And the GI50 (OVCAR-3)?
Its GI50 is 12.9 µM (inactive).

And the GI50 (NCI-H226)?
The GI50 was 2.24 µM (inactive).

What about the GI50 (786-0) of the same compound?
Its GI50 is 5.96 µM (inactive).

What about the GI50 (SR) of the same compound?
Its GI50 is 3.24 µM (inactive).

What about the GI50 (MDA-MB-435) of the same compound?
Its GI50 is 5.24 µM (inactive).

And the GI50 (COLO 205)?
The GI50 was 12.4 µM (inactive).

What about the GI50 (DU-145) of the same compound?
The GI50 was 12.5 µM (inactive).

What about the GI50 (SK-MEL-2) of the same compound?
The GI50 was 13.4 µM (inactive).

And the GI50 (HCT-15)?
Its GI50 is 9.27 µM.

What about the GI50 (SK-MEL-5) of the same compound?
Its GI50 is 13.9 µM (inactive).

What about the GI50 (UO-31) of the same compound?
The GI50 was 6.71 µM (inactive).

What about the GI50 (NCI-H23) of the same compound?
Its GI50 is 6.7 µM (inactive).

And the GI50 (SF-295)?
Its GI50 is 5.07 µM (inactive).

With NC(Cc1ccnnc1)C(=O)O (centres undefined) as the compound, how does the GI50 (A549) read?
Its GI50 is > 100 µM (inactive).

What about the GI50 (TK-10) of the same compound?
The GI50 was > 100 µM (inactive).

What about the GI50 (MDA-MB-231) of the same compound?
Its GI50 is > 100 µM (inactive).

What about the GI50 (HCC 2998) of the same compound?
Its GI50 is > 100 µM (inactive).

And the GI50 (ACHN)?
Its GI50 is > 100 µM (inactive).

What about the GI50 (OVCAR-3) of the same compound?
Its GI50 is > 100 µM (inactive).

And the GI50 (NCI-H226)?
Its GI50 is > 100 µM (inactive).

And the GI50 (786-0)?
Its GI50 is > 100 µM (inactive).

What about the GI50 (SR) of the same compound?
Its GI50 is > 100 µM (inactive).

And the GI50 (MDA-MB-435)?
The GI50 was > 100 µM (inactive).

What about the GI50 (COLO 205) of the same compound?
The GI50 was > 100 µM (inactive).

What about the GI50 (DU-145) of the same compound?
Its GI50 is > 100 µM (inactive).

What about the GI50 (SK-MEL-2) of the same compound?
The GI50 was > 100 µM (inactive).

What about the GI50 (HCT-15) of the same compound?
The GI50 was greater than 100 µM.

What about the GI50 (SK-MEL-5) of the same compound?
Its GI50 is > 100 µM (inactive).

And the GI50 (UO-31)?
The GI50 was > 100 µM (inactive).

What about the GI50 (NCI-H23) of the same compound?
Its GI50 is > 100 µM (inactive).

And the GI50 (SF-295)?
The GI50 was > 100 µM (inactive).

With COC(=O)[C@@H](NS(=O)(=O)CC12CCC(CC1)C2(C)C)C(C)(C)C as the compound, how does the GI50 (A549) read?
The GI50 was > 100 µM (inactive).

What about the GI50 (TK-10) of the same compound?
Its GI50 is > 100 µM (inactive).

And the GI50 (MDA-MB-231)?
Its GI50 is > 100 µM (inactive).

What about the GI50 (HCC 2998) of the same compound?
The GI50 was > 100 µM (inactive).

What about the GI50 (ACHN) of the same compound?
The GI50 was > 100 µM (inactive).

What about the GI50 (OVCAR-3) of the same compound?
The GI50 was > 100 µM (inactive).

And the GI50 (NCI-H226)?
Its GI50 is > 100 µM (inactive).

What about the GI50 (786-0) of the same compound?
The GI50 was > 100 µM (inactive).

What about the GI50 (SR) of the same compound?
The GI50 was 23.3 µM (inactive).

And the GI50 (MDA-MB-435)?
Its GI50 is > 100 µM (inactive).

What about the GI50 (COLO 205) of the same compound?
Its GI50 is > 100 µM (inactive).

What about the GI50 (DU-145) of the same compound?
The GI50 was > 100 µM (inactive).

What about the GI50 (SK-MEL-2) of the same compound?
The GI50 was > 100 µM (inactive).

And the GI50 (HCT-15)?
Its GI50 is greater than 100 µM.

What about the GI50 (SK-MEL-5) of the same compound?
The GI50 was > 100 µM (inactive).

What about the GI50 (UO-31) of the same compound?
Its GI50 is > 100 µM (inactive).

And the GI50 (NCI-H23)?
Its GI50 is > 100 µM (inactive).

And the GI50 (SF-295)?
Its GI50 is > 100 µM (inactive).

CC1=NC(=O)C(C)(c2ccccc2)N1CCc1ccccc1 (centres undefined) was tested. Which GI50 (A549) did it give?
Its GI50 is 27.3 µM (inactive).

What about the GI50 (TK-10) of the same compound?
The GI50 was > 100 µM (inactive).

What about the GI50 (MDA-MB-231) of the same compound?
The GI50 was 67.6 µM (inactive).

And the GI50 (HCC 2998)?
The GI50 was 27.4 µM (inactive).

What about the GI50 (ACHN) of the same compound?
Its GI50 is > 100 µM (inactive).

And the GI50 (OVCAR-3)?
Its GI50 is 11.1 µM (inactive).

What about the GI50 (NCI-H226) of the same compound?
The GI50 was 42.7 µM (inactive).

And the GI50 (786-0)?
Its GI50 is > 100 µM (inactive).

What about the GI50 (SR) of the same compound?
The GI50 was 32 µM (inactive).

What about the GI50 (MDA-MB-435) of the same compound?
The GI50 was 75 µM (inactive).

What about the GI50 (COLO 205) of the same compound?
Its GI50 is 27.4 µM (inactive).

And the GI50 (DU-145)?
Its GI50 is > 100 µM (inactive).

And the GI50 (SK-MEL-2)?
Its GI50 is > 100 µM (inactive).

And the GI50 (HCT-15)?
Its GI50 is 35.2 µM.

And the GI50 (SK-MEL-5)?
Its GI50 is 27 µM (inactive).

What about the GI50 (UO-31) of the same compound?
The GI50 was > 100 µM (inactive).

And the GI50 (NCI-H23)?
The GI50 was > 100 µM (inactive).

What about the GI50 (SF-295) of the same compound?
The GI50 was 38.5 µM (inactive).

For COc1ccc(C(=O)N2CCN(c3ccc4c(c3)OCC(=O)N4)CC2)cc1OC, which GI50 (A549) is on record?
The GI50 was > 100 µM (inactive).

And the GI50 (TK-10)?
The GI50 was > 100 µM (inactive).

And the GI50 (MDA-MB-231)?
Its GI50 is > 100 µM (inactive).

And the GI50 (HCC 2998)?
Its GI50 is > 100 µM (inactive).

And the GI50 (ACHN)?
Its GI50 is > 100 µM (inactive).

And the GI50 (OVCAR-3)?
Its GI50 is > 100 µM (inactive).

And the GI50 (NCI-H226)?
Its GI50 is > 100 µM (inactive).

What about the GI50 (786-0) of the same compound?
Its GI50 is > 100 µM (inactive).

What about the GI50 (SR) of the same compound?
The GI50 was > 100 µM (inactive).

And the GI50 (MDA-MB-435)?
Its GI50 is > 100 µM (inactive).

And the GI50 (COLO 205)?
The GI50 was > 100 µM (inactive).

And the GI50 (DU-145)?
Its GI50 is > 100 µM (inactive).

What about the GI50 (SK-MEL-2) of the same compound?
The GI50 was > 100 µM (inactive).

What about the GI50 (HCT-15) of the same compound?
Its GI50 is greater than 100 µM.

And the GI50 (SK-MEL-5)?
The GI50 was > 100 µM (inactive).

What about the GI50 (UO-31) of the same compound?
Its GI50 is > 100 µM (inactive).

And the GI50 (NCI-H23)?
Its GI50 is > 100 µM (inactive).

And the GI50 (SF-295)?
The GI50 was > 100 µM (inactive).
